Test results reported in patent publication US12357636B2 (Urovant Sciences GmbH, priority 2018, dated 2025).

Tests used:
[1] = human plasma protein binding; format: in vitro ADME
[2] = single rising oral dose Phase 1 pharmacokinetics; format: in vivo, human
Protocol: The steady state AUC geometric mean accumulation ratios were ˜2 in young male subjects and ˜2.8 in elderly subjects (male and female).
All subjects were healthy adults. […] Systemic exposures were greater than dose proportional up to 600 mg.
Although exposures were similar in middle-aged males when compared to young males, plasma concentrations were higher in elderly compared to middle-aged and young subjects. […] Furthermore, the steady state AUC geometric mean accumulation ratios were ˜2 in young males and ˜2.8 in the elderly.

[3] = effect of food on oral absorption; format: in vivo, human
[4] = drug interaction: effect of ketoconazole, diltiazem or tolterodine on vibegron PK; format: in vivo, human
Excerpt: However, these interactions are not expected to be clinically significant.

[5] = system: men and women with OAB; assay: Phase 2b study in OAB: efficacy (voiding diary); format: in vivo, human; conditions: OAB Wet
Excerpt: Part 2 was designed to continue to assess the safety and efficacy of concomitant dosing. […] Subjects in both Part 1 and Part 2 had the option of enrolling in a 1-year extension. Participants were required to keep a voiding diary, recording the occurrence of each strong urge, total incontinence, and urge incontinence episode. Efficacy data for Part 1 and Part 2 are summarized herein.
The total number of urgency incontinence episodes must have exceeded the total number of stress incontinence episodes for all subjects.
Conversely, a dose dependent effect on urge incontinence or total incontinence was not observed.

[6] = system: healthy subjects; assay: multiple-dose Phase 1 study: maximum MA4 heart rate; format: in vivo, human; conditions: Day 14
Protocol: More intensive assessments of heart rate and blood pressure were performed in healthy volunteers in several Phase 1 studies. […] Doses ranged from 25 to 400 mg once daily for 7 to 28 days depending on the cohort. Least squares mean and 90% confidence intervals of maximum change from baseline in moving average of heart rate over 4 hours postdose (MA4 HR) are presented in Table 18.

[7] = dose-Cmax and dose-AUC models, log-log regression and simulations for 75 mg; design: species or system human
Protocol: In order to contextualize PK parameters of a 75 mg dose, dose-Cmax and dose-AUC models were created using data from Phase 1 studies.

[8] = system: men and women with overactive bladder; assay: Phase 3 study vibegron 75 mg vs placebo and tolterodine, 12 weeks, OAB: efficacy (Tables 21-25); format: in vivo, human
Protocol: Enrollment of patients included individuals with OAB Wet (those with UUI, the involuntary loss of urine accompanied by urgency) and OAB Dry (those without UUI). A total of 1,518 patients were randomized across 215 study sites into one of three groups for a 12-week treatment period.
The study consisted of a Screening Period (1 to 5 weeks), a single-blind Run-in Period (2 weeks), a randomized double-blind Treatment Period (12 weeks), and a Follow-up Period (4 weeks).
Tolterodine ER 4 mg was the active control. […] Between the Baseline and Week 12 Visits, patients had study assessments at Week 4 and Week 8.
For the analysis of the co-primary endpoints (change from baseline in average number of daily micturitions at Week 12 and change from baseline in average number of daily urge urinary incontinence episodes at Week 12, and placebo adjustment of each), a mixed model for repeated measure (MMRM) with restricted maximum likelihood estimation was used. This model corrects for dropout and accounts for the fact that measurements taken on the same patient over time tend to be correlated by using all available information on patients within the same covariate set to derive an estimate of the treatment effect for a dropout-free population. The analysis model for each efficacy endpoint includes terms for treatment, visit, OAB Type (Wet vs Dry), Sex (Female vs Male), Region (US vs Rest of World), baseline score, and interaction of visit by treatment.
Primary inferences were drawn from treatment differences for the changes from baseline derived from the MMRM models at Week 12. As part of secondary objectives, the treatment differences for each post baseline visit were also derived using the same MMRM model.
An unstructured covariance matrix was used to model the correlation among repeated measurements. The Kenward-Roger adjustment was used with restricted (or residual) maximum likelihood (REML) to make statistical inference. If the unstructured covariance model fails to converge with the default Newton-Raphson algorithm, the Fisher scoring algorithm or other appropriate methods can be used to provide initial values of the covariance parameters. In the rare event that none of the above methods yield convergence, a structured covariance would be used to model the correlation among repeated measurements.
The change from baseline efficacy endpoints was analyzed using the same MMRM model described for co-primary endpoints.
Analysis of the efficacy endpoints of proportion of patients with at least 75% reduction in the average number of daily UUI episodes at Week 12 and proportion of patients with 50% reduction in the average number of daily urgency episodes at Week 12 was analyzed using the Cochran-Mantel-Haenszel risk difference estimate. Missing Week 12 data was analyzed using multiple imputation. The estimated difference in the proportion of responders and 95% confidence interval for the difference was calculated using the Cochran-Mantel-Haenszel risk difference estimate stratified by OAB Type (Wet vs Dry) and Sex (Female vs Male), with weights proposed by Greenland and Robins.
The same statistical methods that were used to analyze the co-primary and secondary efficacy endpoints were used for the exploratory analyses. Exploratory responder analyses were analyzed using the same Cochran-Mantel-Haenszel model as described above for secondary endpoints.

[9] = system: men and women with overactive bladder; assay: Phase 3 study vibegron 75 mg: safety and tolerability; format: in vivo, human; conditions: 75 mg QD, 12 weeks
Protocol: Safety analyses were conducted using the SAF and summarized by treatment group as treated. The treatment-emergent period is defined as the period of time from the first dose date of the double blinded Study Treatment through 28 days after the last dose of Study Treatment, or the date of initiation of another investigational agent or surgical intervention or rollover to the extension study, whichever occurs first. Safety was assessed through summaries of adverse events, the frequency of treatment discontinuations due to adverse events, and clinical laboratory evaluations.

[10] = system: healthy subjects; conditions: in vivo
[11] = human, in vivo
[12] = 150 mg multiple doses, Day 14, middle-aged females
[13] = single 50 mg, Japanese young males
[14] = single 50 mg, non-Japanese young males
[15] = multiple doses of 240 mg or 180 mg diltiazem, vibegron 100 mg

SMILES: O=C(Nc1ccc(C[C@@H]2CC[C@H]([C@H](O)c3ccccc3)N2)cc1)[C@@H]1CCc2nccc(=O)n21 [Vibegron, (6S)—N-[4-[[(2S,5R)-5-[(R)-hydroxy(phenyl)methyl]pyrrolidin-2-yl]methyl]phenyl]-4-oxo-7,8-dihydro-6H-pyrrolo[1,2-a]pyrimidine-6-carboxamide]
- bound to human plasma proteins [1]: approximately 49%
- exposure increase, young Japanese vs non-Japanese males ([2]; single dose): < 2 fold
- dose proportionality of mean Cmax and AUC ([2]; up to 400 mg): greater than dose-proportional
- mean Cmax with food compared to fasted state ([3]; 150 mg multiple doses, Day 1): 59%
- mean AUC0-24 with food compared to fasted state ([3]; 150 mg multiple doses, Day 1, middle-aged and elderly females): ~42%
- mean AUC0-24 with food compared to fasted state ([3]; 150 mg multiple doses, Day 14): ~20%
- mean Cmax with food compared to fasted state ([3]; 150 mg multiple doses, Day 14): 43%
- reduction in mean AUC0-24hr with food vs fasted [3, 12]: 20%
- reduction in mean Cmax with food vs fasted [3, 12]: 47%
- Tmax ([3]; male, human, plasma, oral, single 50 mg, non-Japanese young males, read-out: delay in Tmax with high-fat meal): ~1 h
- reduction in AUC0-inf with standard Japanese breakfast [3, 13]: 37%
- reduction in Cmax with standard Japanese breakfast [3, 13]: 52%
- reduction in AUC0-inf with high-fat meal vs fasted [3, 14]: 46%
- reduction in Cmax with high-fat meal vs fasted [3, 14]: 67%
- effect of tolterodine ER 4 mg on the pharmacokinetics of vibegron ([4]; in vivo): no effect
- GM AUC0-inf increase with diltiazem [4, 15]: 63%
- GM Cmax increase with diltiazem [4, 15]: 68%
- Urgency Incontinence Episodes daily number, Week 8 mean ([5]; vibegron 15 mg QD): 1.12
- Total Incontinence Episodes daily number, Week 8 mean ([5]; vibegron 100 mg QD): 1.12
- Maximum MA4 HR change from baseline, LS mean ([6]; 25 mg QD): 1.47 bpm
- Maximum MA4 HR, difference from placebo ([6]; 25 mg QD): −1.60 bpm
- Maximum MA4 HR change from baseline, LS mean ([6]; 50 mg QD): 1.50 bpm
- Maximum MA4 HR, difference from placebo ([6]; 50 mg QD): −1.57 bpm
- Maximum MA4 HR change from baseline, LS mean ([6]; 100 mg QD): 3.28 bpm
- Maximum MA4 HR change from baseline, LS mean ([6]; 150 mg QD): 3.17 bpm
- Maximum MA4 HR, difference from placebo ([6]; 150 mg QD): 0.10 bpm
- Maximum MA4 HR change from baseline, LS mean ([6]; 200 mg QD): 5.67 bpm
- Maximum MA4 HR, difference from placebo ([6]; 200 mg QD): 2.60 bpm
- Maximum MA4 HR change from baseline, LS mean ([6]; 300 mg QD): 9.06 bpm
- Maximum MA4 HR, difference from placebo ([6]; 300 mg QD): 5.98 bpm
- Maximum MA4 HR change from baseline, LS mean ([6]; 400 mg QD): 10.33 bpm
- Maximum MA4 HR, difference from placebo ([6]; 400 mg QD): 7.26 bpm
- AUC of 75 mg lower than 200 mg single dose [7]: ~2 fold
- AUC of 75 mg lower than 400 mg single dose [7]: ~6 fold
- Cmax of 75 mg lower than 200 mg single dose [7]: approximately 3.3 fold
- Cmax of 75 mg lower than 400 mg single dose [7]: ~9.2 fold
- increase in Cmax with increase in dose from 50 to 100 mg [7]: ~4 fold
- reduction in Cmax on decreasing dose from 100 mg to 75 mg [7]: ~40%
- total incontinence episodes vs baseline ([8]; 75 mg QD, 12 weeks): reduced by half
- Micturitions: Week 12 CFB Mean ([8]; Males with BPH, descriptive statistics): −1.50
- OAB-q Coping Score, Week 12 LS Mean Change from Baseline (Placebo-Adjusted) ([8]; Week 12, key secondary endpoint, once-daily vibegron 75 mg or tolterodine): 3.6
- tolerability [9]: favorable
- thorough QT study finding [10]: no clinically meaningful effect on QTc or blood pressure
- dose recovered in feces [11]: approximately 59%
- dose recovered in urine [11]: ~20%
